Experimental data from US8022617B2, “Organic compound, charge-transporting material, composition for charge-transporting material and organic electroluminescent device” (Mitsubishi Chemical Corporation, priority 2005, dated 2011).

Assay: Solubility in toluene
Format: physicochemical
Settings: solvent toluene
Text: As described below, an aromatic hydrocarbon is preferred as a solvent contained in a composition for charge-transporting material. Toluene is a typical aromatic hydrocarbon and is used as an index of the solubility of the organic compound (charge-transporting material) in the present invention.

Row | Compound | dissolved in toluene in an amount of [percent by weight]
1 | O=c1n(-c2cccc(-n3c4ccccc4c4ccccc43)c2)c2cccnc2n1-c1cccc(-n2c3ccccc3c3ccccc32)c1 [Target Compound 16] | ≥ 3
2 | O=c1n(-c2cccc(-n3c4ccccc4c4ccncc43)c2)c2ccccc2n1-c1cccc(-n2c3ccccc3c3ccncc32)c1 [Target Compound 12] | ≥ 3
3 | O=c1n(-c2cccc(-c3ccccc3)c2)c2ccccc2n1-c1cccc(-c2ccccc2)c1 [Target Compound 6] | ≥ 5.0

The next lines start with the values.

Row | dissolved in toluene in an amount of [percent by weight] | Compound
4 | ≥ 5.0 | O=c1n(-c2ccc(N(c3ccccc3)c3ccc(-c4ccccc4)cc3)cc2)c2ccccc2n1-c1ccc(N(c2ccccc2)c2ccc(-c3ccccc3)cc2)cc1 [Target Compound 5]
5 | ≥ 3 | O=c1n(-c2cccc(-n3c4ccccc4c4ccccc43)c2)c2ccccc2n1-c1cccc(-n2c3ccccc3c3ccccc32)c1 [Target Compound 4]
